Measured values: article PMC11561238, “Discovery and binding mode of small molecule inhibitors of the apo form of human TDO2” (Scientific Reports, 2024)
Several values for one entry are separate records, joined by “and”; a condition that tells them apart may be missing. Identical values can stand only once.

Tests used:
apo-TDO2 = target: T1, apo-TDO2 (Homo sapiens, UniProt P48775); test: Differential scanning fluorimetry (thermal shift) of apo-TDO2; assay type: binding
T1 construct: a longer construct (His6-aa19-406, with aa406 corresponding to the wild type C-terminal residue), which was used for DSF and other experiments; made in house; host or cells: E. coli RP523 (hemB mutant, unable to synthesize heme)
T1 sequence (P48775 19-406): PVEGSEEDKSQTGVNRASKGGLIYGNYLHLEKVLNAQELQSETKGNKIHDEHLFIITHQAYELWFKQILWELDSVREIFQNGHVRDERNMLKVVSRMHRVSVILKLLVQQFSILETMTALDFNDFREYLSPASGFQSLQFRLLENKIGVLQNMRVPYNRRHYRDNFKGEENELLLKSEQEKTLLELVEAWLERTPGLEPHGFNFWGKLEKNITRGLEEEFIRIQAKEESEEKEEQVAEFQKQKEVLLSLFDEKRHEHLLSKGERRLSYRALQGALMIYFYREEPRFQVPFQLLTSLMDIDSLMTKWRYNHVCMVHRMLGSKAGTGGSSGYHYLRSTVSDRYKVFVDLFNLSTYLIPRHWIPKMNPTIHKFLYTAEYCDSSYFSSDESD
Procedure: […] S5 online).
Protein thermal stability and small molecule ligand binding of TDO2 in vitro was studied using differential scanning fluorimetry (DSF, also known as thermal shift assay)[34]. Assay ingredients and ligands were combined to obtain a mixture composed of 10 µM TDO2 and 10x SYPRO Orange, in assay buffer (50 mM HEPES-NaOH pH 8.0, 200 mM NaCl, 2 mM TCEP, 10% glycerol) and 2% final DMSO concentration. Small molecule chemical ligands were taken from DMSO stock solution (100 mM, 10 mM) and diluted in DMSO transferred to wells of PCR Plates (Micro Amp Fast 96-well Reaction Plates, Applied Biosystems) to ensure matching final DMSO concentrations.
DSF was carried out with a StepOnePlus™ real time PCR system. Thermal denaturation of TDO2 was monitored with a ramp rate of 1 K/min. Protein melting curves were evaluated using the Thermal Shift Software v 1.3. (Thermo Fisher Scientific) to derive differences in midpoint melting-temperatures (derivative model). The thermal shift (DTm) is documented as the difference between the reference midpoint melting temperature of proteins (containing 500 µM AMT) in the presence of the ligand vehicle (DMSO) and in the presence of ligand.
Supplementary Table S2. Differential scanning fluorimetry data corresponding to supplementary figure S4. The experiments were carried out in quadruplicate, or in triplicate where single outlier values (highlighted in bold italics) were excluded from calculation of the melting curves. AMT was added at a concentration of 500 µM; […] and […] were added at a concentration of 25 µM.

holo-TDO2 = test system: holo-TDO2; design: method as in PMID 27762317; conditions: AMT bound to exosite; cited from earlier work
[1] = test system: patients with unresectable or metastatic melanoma; design: method as in PMID 31221619; conditions: with pembrolizumab, vs placebo; cited from earlier work
[2] = apo-TDO2 + AMT 500 µM alone, shift vs apo, single replicates, in °C

SMILES | melting temperature of apo-TDO2 in the absence of inhibitor (apo-TDO2; 500 µM AMT present) | Δ Tm Boltzmann (apo-TDO2; [2]) | Δ Tm Derivative (apo-TDO2; [2]) | Tm Boltzmann (apo-TDO2; apo-TDO2 + AMT 500 µM alone, single replicates (text b14 gives °C), in °C) | Tm Derivative (apo-TDO2; apo-TDO2 + AMT 500 µM alone, single replicates, in °C) | effect on catalytic properties of holo-TDO2 (holo-TDO2) | effect on proteolytic degradation of holo-TDO2 (holo-TDO2) | stabilization of isolated holo-TDO2 enzyme (holo-TDO2) | progression-free survival or overall survival [1]
C[C@](N)(Cc1c[nH]c2ccccc12)C(=O)O [AMT, α-methyltryptophan, reference compound] | 59.2 °C | 9.95 and 10.71 and 10.46 | 9.6 and 10.48 and 10.27 | 58.75 and 59.51 and 59.26 | 58.49 and 59.36 and 59.16 | not affecting the catalytic properties | prevented its proteolytic degradation by the ubiquitin-dependent proteasomal pathway | stabilized the isolated holo-TDO2 enzyme against heat, urea and proteases | 
NS(=O)(=O)NCCNc1nonc1C(=NO)Nc1ccc(F)c(Br)c1 [epacadostat] |  |  |  |  |  |  |  |  | failed to show improved progression-free survival or overall survival compared with placebo
